In patent publication US20260240683A1, “MOLECULAR LINKERS” (CWAN TECHNOLOGIES PTY LTD, priority 2023, published 2026):

How the values were obtained:
[1] = Riboflavin solubility at 0.1% in PBS; assay type: physicochemical
[2] = Diffusion into thermally gelled 12% gelatin gel disc (A452 read-out), model corneal stroma; assay type: physicochemical
Method: A 12% Gelatin (Sigma G1890) Type A, 300 Bloom solution was prepared in PBS (pH7.4) by melting at 50° C. 60 μL was added to an 8.5 mm (diameter)×1 mm (deep) round Teflon mould. The Gelatin was allowed to set thermally for 10 min at 18.5° C. At 10 min, 60 μL 0.5 mM Ru(bpy)3 (0.5 mM solution in PBS) is added to the top of the thermally gelled 12% gelatin disc. The gelatin disc was covered with foil during diffusion time. Excess solution was blotted from the top of the gel using a Kimwipe. Remove gelled disc using spatula, add to 940 μL of PBS @55° C. Melt gel (30 sec)—add solution to cuvette, read A452.
If diffusion is expressed as a percentage of the total disc volume equilibrated with the applied 0.5 mM Ru(bpy)3 solution, then, assuming total mixing of the applied 60 μL solution with the 60 μL gelatin disc, 100% diffusion would represent an A452 of 0.205 [0.221−0.016=gelatin−PBS blank)]. So, diffusion to 30% of the hydrogel depth/thickness (in this case representing ca. 300 μm) would be attained in about 2.3 min. This is the desired depth of penetration of a crosslinking agent in the human cornea (by comparison with Riboflavin-based CXL methods, which require 30 minutes of diffusion).

[3] = Ru(bpy)3 diffusion through debrided bovine cadaver corneal stroma; assay type: in vitro ADME; conditions: PBS solution containing 0.5 mM Ru(bpy)3; 800 μm thick bovine cadaver corneal stroma; within 6 minutes
Method: 10 fresh bull eyes were obtained from an abattoir (<10 hours old, stored at 4° C.). Using a digital caliper, the thickness of the corneas was determined to be within the range of 740 μm to 820 μm. The epithelium of the eyes was debrided with an 8 mm biopsy punch and scraped-off with a scalpel blade.
[…] Excess Ru(bpy)3 solution was removed by blotting using a fresh Kimwipe tissue.
Corneas were frozen on the surface of an aluminium block at −20° C. for 2 minutes (FIG. 7B). Transverse (bisecting) cross-sections of cornea were prepared by cutting a 1 mm thick section using a razor blade. The corneal cross-section was mounted on a glass slide to allow visualization of the cross-sectional area of the corneal stroma (FIG. 7C). Ru(bpy)3 was visualized through a red filter with illumination with a 450 nm LED light (FIG. 7).
The rate of diffusion of Ru(bpy)3 through both fresh bovine cadaver corneal stroma and through a thermally gelled 12% gelatin hydrogel (as a model corneal stromal matrix), was studied.

[4] = Photochemical crosslinking of corneal stroma using 3D template mould; set-up: species or system bovine; conditions: 300 μL, 10 min diffusion, 20 sec 450 nm blue LED at 1 cm; 1 mM Ru(bpy)3 with or without 50 mM SPS
Method: The entire epithelium was debrided from a cornea. 300 μL of 1 mM Ru(bpy)3+50 mM SPS was applied to the anterior corneal surface for a diffusion time of 10 minutes (FIG. 9A). The cornea was wrapped over a metal piping nozzle, acting as a mould, and irradiated for 20 seconds using 450 nm blue LED dental lamp at a distance of 1 cm from the light guide tip (FIG. 9B).
A cornea was subject to the crosslinking protocol described in Example 3A, except that sodium persulphate (SPS) was omitted. […] In its absence, singlet oxygen radical production by short (20 sec) blue light irradiation of Ru(bpy)3 in aqueous solution is insufficient to cause any measurable covalent crosslinking of endogenous stromal proteins. In contrast, in its presence, crosslinking of endogenous corneal proteins and “molecular linkers” occurs rapidly and quantitatively.

[5] = Diffusion of Ru(bpy)3+SPS and photochemical crosslinking of 1 mm 12% gelatin hydrogel (weight after 65° C. melt); assay type: physicochemical
Method: Method: 12% Gelatin (Sigma G1890) Type A 300 Bloom in PBS (pH 7.4), was melted at 50° C. and 60 μL added to an 8.5 mm (diameter) disc×1 mm (deep) Teflon mould. The gelatin was allowed to set thermally for 10 min at 18.5° C. 60 μL of Ru(bpy)3/SPS solution (either a 0.5 mM Ru(bpy)3+50 mM SPS; a 1.0 mM Ru(bpy)3+50 mM SPS or a 2.0 mM Ru(bpy)3+50 mM SPS) was added and allowed to diffuse into the gel disc for varying times (0, 2, 4, 6, 8, 10, 14 min). Excess liquid was blotted from the top surface of the mould. At the end point of the diffusion period, the thermally set gelatin hydrogel was illuminated using a 3M ESPE blue LED lamp (1,200 mW/cm^2) for 5 sec at 1 cm distance from the light guide tip. The crosslinked gelatin hydrogel was weighed on a microbalance before being placed into a 65° C. water bath for 30 sec. Excess liquid was removed from the crosslinked hydrogel and it was again weighed to measure residual crosslinked gelatin hydrogel. A plot was prepared showing % crosslinked gelatin vs diffusion time (zero to 14 min).
Aim: To determine the time required for a solution containing Ru(bpy)3+SPS to diffuse through a 1 mm thick sheet of thermally-gelled gelatin and then to form covalent crosslinks between gelatin molecules, thus rendering the hydrogel resistant to subsequent melting at high temperature. […]

Row | rate of diffusion through 12% gelatin hydrogel compared with 0.5 mM Ru(bpy)3 solution ([2]; Riboflavin 0.1% (2.6 mM)) | depth of free diffusion through corneal stroma [3] [μm] | time to diffuse through the entire 1.0 mm thickness of 12% (w/v) gelatin hydrogel ([5]; Ru(bpy)3+50 mM SPS solutions (0.5, 1.0, 2.0 mM)) [min] | time to diffuse to 30% of the hydrogel depth/thickness (ca. 300 μm) ([2]; 0.5 mM Ru(bpy)3 in PBS, 60 μL on 1 mm deep 12% gelatin disc) | SMILES | solubility at 0.1% (2.6 mM) ([1]; PBS (pH 7.4)) | solubility at 0.1% (2.6 mM) ([1]; PBS with NaOH added, pH ca. 8.5, RT) | formation of templated 3D structure of cornea after photo-crosslinking on mould [4] | covalent crosslinking of gelatin hydrogel after the diffusion step ([5]; Ru(bpy)3+SPS, 5 second illumination with 450 nm blue LED lamp)
1 | slightly slower | – | – | – | Cc1cc2nc3c(=O)[nH]c(=O)nc-3n(C[C@H](O)[C@H](O)[C@H](O)CO)c2cc1C [Riboflavin, riboflavin] | =2.6 mM in PBS (pH 7.4) - not fully soluble in PBS* | *Added 1 μL of 10N NaOH to 2 ml of 0.1% solution in PBS - took pH to ca. 8.5 (by pH paper test). Riboflavin solution was now fully soluble at 0.1% (2.6 mM) at RT. | – | –
2 | – | 400 | ≤ 6 | about 2.3 min | [Cl-].[Cl-].[Ru+2].c1ccc(-c2ccccn2)nc1.c1ccc(-c2ccccn2)nc1.c1ccc(-c2ccccn2)nc1 [Ru(bpy)3, ruthenium (tris)bipyridyl chloride] | – | – | no mould template structure was formed | entire gelatin hydrogel can be covalently crosslinked
